# Data as given in US20130216649A1, “MOUTH-MOISTENING GUM COMPOSITIONS AND PRODUCTS CONTAINING THE SAME” (Kraft Foods Global Brands LLC, priority 2010, published 2013).
# Assay: Effect of the spilanthol amount in a chewing gum formulation (taste, mouth moistening)
# Type: in vivo
# Conditions: below 75 ppm in a chewing gum formulation
smiles,measurement,value
"C/C=C/C=C\CC/C=C/C(=O)NCC(C)C [spilanthol, N-isobutyl-2E,6Z,8E-decatrienamide]",effectiveness for mouth-moistening purposes,insufficient
